Results reported in patent publication US7101878B1 (Agouron Pharmaceuticals, Inc., priority 1998, dated 2006).

Target: T1, mouse GnRH receptor (Mus musculus, UniProt Q01776)
T1 construct: expressed in transfected cells; host or cells: 293 cells
T1 sequence (Q01776 1-327): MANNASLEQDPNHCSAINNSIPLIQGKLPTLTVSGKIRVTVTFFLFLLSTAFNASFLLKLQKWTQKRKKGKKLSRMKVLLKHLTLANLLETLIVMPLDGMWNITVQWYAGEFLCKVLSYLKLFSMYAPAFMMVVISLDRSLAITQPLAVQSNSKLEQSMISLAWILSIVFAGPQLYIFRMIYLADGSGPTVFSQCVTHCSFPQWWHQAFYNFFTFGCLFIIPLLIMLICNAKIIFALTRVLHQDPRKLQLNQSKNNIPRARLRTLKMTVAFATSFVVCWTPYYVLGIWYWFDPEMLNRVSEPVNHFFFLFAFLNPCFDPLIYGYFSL
Assay: Radioligand binding, 125I-GnRH-A, 293 cells expressing mouse GnRH receptors
Conditions: 10 uM; read-out: % Inhib. @ 10 uM mGnRH
Summary of the method: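 Bound label captured on 0.1% polyethyleneimine-treated GF/C filters, washed three times with PBS, counted. IC50 derived; identical set-up for every species.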

inhibition at 10 µM | SMILES
104% | Cc1cc2c(cc1Cc1ccc(C(=O)N3CCC(CCCC4CCN(CCO)CC4)CC3)o1)C(C)(C)CCC2(C)C [drawing 1427]
48% | Cc1cc2c(cc1Cc1ccc(C(=O)N(Cc3ccc(C(C)C)cc3)C3CCN(Cc4ccccc4)C3)o1)C(C)(C)CCC2(C)C (centres unmarked) [drawing 1564]
78% | COc1ccc(CCNC(=O)c2ccc(Cc3cc4c(cc3C)C(C)(C)CCC4(C)C)o2)cc1Br [drawing 1532]
105% | Cc1cc2c(cc1Cc1ccc(C(=O)N(CCC3CCCN3C)Cc3ccc4ccccc4c3)o1)C(C)(C)CCC2(C)C (centres unmarked) [drawing 1492]
86% | CCN(Cc1ccccc1)C(=O)c1ccc(Cc2cc3c(cc2C)C(C)(C)CCC3(C)C)o1
53% | Cc1cc2c(cc1Cc1ccc(C(=O)NCCO)o1)C(C)(C)CCC2(C)C [drawing 1527]

Second part, the compound before the results:

SMILES | inhibition at 10 µM
Cc1cc2c(cc1Cc1ccc(C(=O)N3CCC(N4CCCCC4)CC3)o1)C(C)(C)CCC2(C)C | 92%
CSCCNC(=O)c1ccc(Cc2cc3c(cc2C)C(C)(C)CCC3(C)C)o1 [drawing 1587] | 97%
CCc1ccc(CN(CCCO)C(=O)c2ccc(Cc3cc4c(cc3C)C(C)(C)CCC4(C)C)o2)cc1 | 88%
Cc1cc2c(cc1Cc1ccc(C(=O)NCCCOC(C)C)o1)C(C)(C)CCC2(C)C [drawing 1487] | 93%
Cc1cc2c(cc1Cc1ccc(C(=O)N3CCN(CCCO)CC3)o1)C(C)(C)CCC2(C)C | 66%
COc1cc(OC)cc(N2CCN(C(=O)c3ccc(Cc4cc5c(cc4C)C(C)(C)CCC5(C)C)o3)CC2)c1 [drawing 1576] | 65%
Cc1cc2c(cc1Cc1ccc(C(=O)N(C)CC3OCCO3)o1)C(C)(C)CCC2(C)C [drawing 1500] | 86%
Cc1cc2c(cc1Cc1ccc(C(=O)N(CCC#N)Cc3cccnc3)o1)C(C)(C)CCC2(C)C [drawing 1473] | 91%
Cc1cc2c(cc1Cc1ccc(C(=O)NC(C)(CO)CO)o1)C(C)(C)CCC2(C)C [drawing 1444] | 55%
Cc1cc2c(cc1Cc1ccc(C(=O)NCCCCCO)o1)C(C)(C)CCC2(C)C [drawing 1437] | 99%
CCCC(CO)NC(=O)c1ccc(Cc2cc3c(cc2C)C(C)(C)CCC3(C)C)o1 (centres unmarked) [drawing 1547] | 99%
CCC1CCC(C)N(C(=O)c2ccc(Cc3cc4c(cc3C)C(C)(C)CCC4(C)C)o2)C1 (centres unmarked) | 95%

Same assay, conditions: 1 h, substrate remaining; 10 uM compound; closer to zero = closer to 100% inhibition; read-out: S%R 10 uM mGnRHR

remaining activity at 10 µM | SMILES
17% | Cc1cc2c(cc1Cc1ccc(C(=O)N(C)CCC#N)o1)C(C)(C)CCC2(C)C [Compound 636]
28% | Cc1cc2c(cc1Cc1ccc(C(=O)NCCc3ccccc3)o1)C(C)(C)CCC2(C)C [Compound 545]
3% | Cc1cc2c(cc1Cc1ccc(C(=O)NC(CO)CC(C)C)o1)C(C)(C)CCC2(C)C (centres unmarked) [Compound 706]

Further lines, the compound ahead of its results:

SMILES | remaining activity at 10 µM
CCN1CC(N(CCC(C)c2ccccc2)C(=O)c2ccc(Cc3cc4c(cc3C)C(C)(C)CCC4(C)C)o2)CN1CC (centres unmarked) [Compound 668] | 6%
Cc1cc2c(cc1Cc1ccc(C(=O)N3CCc4ccccc4C3Cc3ccccc3)o1)C(C)(C)CCC2(C)C (centres unmarked) [Compound 677] | 54%
CSCCCNC(=O)c1ccc(Cc2cc3c(cc2C)C(C)(C)CCC3(C)C)o1 [Compound 640] | 2%
Cc1cc2c(cc1Cc1ccc(C(=O)NC[C@@H]3CCCO3)o1)C(C)(C)CCC2(C)C [Compound 582] | -2%
Cc1cc2c(cc1Cc1ccc(C(=O)NC3CCS(=O)(=O)C3)o1)C(C)(C)CCC2(C)C (centres unmarked) [Compound 626] | 10%
Cc1cc2c(cc1Cc1ccc(C(=O)N3CCCC3C(=O)OCc3ccccc3)o1)C(C)(C)CCC2(C)C (centres unmarked) [Compound 651] | 15%
Cc1cc2c(cc1Cc1ccc(C(=O)NC3CCN(Cc4ccccc4)C3)o1)C(C)(C)CCC2(C)C (centres unmarked) [Compound 699] | -1%
Cc1cc2c(cc1Cc1ccc(C(=O)NCCc3c[nH]c4ccc(O)cc34)o1)C(C)(C)CCC2(C)C [Compound 678] | 17%
